Experimental data published in ChEMBL document CHEMBL2157960, “Novel cyanocombretastatins as potent tubulin polymerisation inhibitors” (Bioorg Med Chem Lett, 2012).
pIC50: −log10 of the molar value.

What was measured:
K562 = assay: Antiproliferative activity against human K562 cells by MTT assay; assay type: functional, cell-based
MDA-MB-468 = assay: Antiproliferative activity against human MDA-MB-468 cells expressing NQO1 by MTT assay; assay type: functional, cell-based
Tubulin = Tubulin (Sus scrofa, UniProt P02554+P02550); assay: Inhibition of pig tubulin polymerization by spectrophotometry; assay type: protein assay
MCF7 = assay: Cytotoxicity against human MCF7 cells; assay type: functional, cell-based

| Compound | pIC50 (K562) | pIC50 (MDA-MB-468) | IC50 (Tubulin) | pIC50 (MCF7) |
| --- | --- | --- | --- | --- |
| COc1ccc(/C=C\c2cc(OC)c(OC)c(OC)c2)cc1F | 8.15 | – | – | – |
| COc1ccc(/C=C/c2cc(OC)c(OC)c(OC)c2)cc1Br | 5.11 | – | – | – |
| COc1ccc(/C=C\c2cc(OC)c(OC)c(OC)c2)cc1O [COMBRETASTATIN A4] | 8.64 | 8.51 | – | – |
| COc1ccc(/C=C/c2cc(OC)c(OC)c(OC)c2)cc1B(O)O | – | – | – | 3.33 |
| COc1ccc(/C=C/c2cc(OC)c(OC)c(OC)c2)cc1F | < 5.60 | – | – | – |

More lines, main results first:

| pIC50 (K562) | pIC50 (MDA-MB-468) | IC50 (Tubulin) | Compound | pIC50 (MCF7) |
| --- | --- | --- | --- | --- |
| 7.31 | 7.15 | 35600 nM | COc1ccc(/C=C(\C#N)c2cc(OC)c(OC)c(OC)c2)cc1Br | – |
| 7.69 | 7.45 | 17400 nM | COc1ccc(/C=C(\C#N)c2cc(OC)c(OC)c(OC)c2)cc1B(O)O | – |
| 8.17 | 8.39 | 4200 nM | COc1ccc(/C=C(/C#N)c2cc(OC)c(OC)c(OC)c2)cc1F | – |
| 7.37 | 7.07 | 43800 nM | COc1ccc(/C=C(\C#N)c2cc(OC)c(OC)c(OC)c2)cc1I | – |
| 7.73 | 7.69 | 18500 nM | COc1ccc(/C=C(\C#N)c2cc(OC)c(OC)c(OC)c2)cc1F | – |
| 7.52 | 7.33 | 25300 nM | C#Cc1cc(/C=C(\C#N)c2cc(OC)c(OC)c(OC)c2)ccc1OC | – |
